Measurements taken from the supplement of paper PMC13380429.

Experiments:
Settings in all cases: 72 h
Caco-2 [1] = assay: cell viability relative to DMSO; higher = less toxic
Calu-3 [2] = assay: as above
HepG2 [3] = assay: as above
U2OS [4] = assay: as above
Vero E6 [5] = assay: as above
Caco-2 [6] = assay: relative viability EC50 (midpoint between 100% and the lowest measured viability); higher = less toxic
Calu-3 [7] = assay: as above
HepG2 [8] = assay: as above
U2OS [9] = assay: as above
Vero E6 [10] = assay: as above
Caco-2 [11] = assay: drug sensitivity score (DSS) for viability; higher = more toxic; extreme values may be limits of the assay
Calu-3 [12] = assay: as above
HepG2 [13] = assay: as above
U2OS [14] = assay: as above
Vero E6 [15] = assay: as above

Row | SMILES | cell viability (Caco-2 [1]; 1 nM) [%] | cell viability (Caco-2 [1]; 10 nM) [%] | cell viability (Caco-2 [1]; 100 nM) [%] | cell viability (Caco-2 [1]; 1000 nM) [%] | cell viability (Caco-2 [1]; 10000 nM) [%] | cell viability (Calu-3 [2]; 1 nM) [%] | cell viability (Calu-3 [2]; 10 nM) [%] | cell viability (Calu-3 [2]; 100 nM) [%] | cell viability (Calu-3 [2]; 1000 nM) [%] | cell viability (Calu-3 [2]; 10000 nM) [%] | cell viability (HepG2 [3]; 1 nM) [%] | cell viability (HepG2 [3]; 10 nM) [%] | cell viability (HepG2 [3]; 100 nM) [%] | cell viability (HepG2 [3]; 1000 nM) [%] | cell viability (HepG2 [3]; 10000 nM) [%] | cell viability (U2OS [4]; 1 nM) [%] | cell viability (U2OS [4]; 10 nM) [%] | cell viability (U2OS [4]; 100 nM) [%] | cell viability (U2OS [4]; 1000 nM) [%] | cell viability (U2OS [4]; 10000 nM) [%] | cell viability (Vero E6 [5]; 1 nM) [%] | cell viability (Vero E6 [5]; 10 nM) [%] | cell viability (Vero E6 [5]; 100 nM) [%] | cell viability (Vero E6 [5]; 1000 nM) [%] | cell viability (Vero E6 [5]; 10000 nM) [%] | relative viability EC50 (Caco-2 [6]) [µM] | relative viability EC50 (Calu-3 [7]) [µM] | relative viability EC50 (HepG2 [8]) [µM] | relative viability EC50 (U2OS [9]) [µM] | relative viability EC50 (Vero E6 [10]) [µM] | drug sensitivity score (Caco-2 [11]) | drug sensitivity score (Calu-3 [12]) | drug sensitivity score (HepG2 [13]) | drug sensitivity score (U2OS [14]) | drug sensitivity score (Vero E6 [15])
1 | COc1ccc(CCNCC(O)COc2cccc(C)c2)cc1OC (stereo not given) [bevantolol] | 94.3 | 111 | 103 | 90.3 | 104 | 107 | 103 | 102 | 113 | 96 | 90.1 | 87.2 | 99.7 | 89.8 | 92.1 | 101 | 95.9 | 101 | 101 | 99.8 | 98.5 | 95.8 | 94.7 | 90.1 | 98.7 | > 10 | > 10 | > 10 | > 10 | > 10 | 0 | 0 | 0 | 0 | 0
2 | CC[C@@]1(O)C(=O)OCc2c1cc1n(c2=O)Cc2cc3cc(O)ccc3nc2-1 [10-hydroxycamptothecin] | 94.2 | 107 | 89.3 | 43 | 13.2 | 95.8 | 97.5 | 48.7 | 31.4 | 20.2 | 102 | 47.8 | 31.2 | 5.3 | 2.1 | 102 | 106 | 90.1 | 41.6 | 1.7 | 97.4 | 97.5 | 92.9 | 59.9 | 22.5 | 0.573 | 0.0695 | 0.0158 | 0.715 | 0.9 | 12.2 | 20.5 | 31.8 | 12.7 | 9.1
3 | CN1CCN(C(=O)c2cc3cc(Cl)ccc3[nH]2)CC1 | 103 | 107 | 102 | 89.9 | 109 | 110 | 89.7 | 106 | 93.7 | 93.8 | 98.1 | 104 | 92.5 | 116 | 94.8 | 99.9 | 100 | 104 | 103 | 95.6 | 97.3 | 96.3 | 98.6 | 100 | 99.8 | > 10 | > 10 | > 10 | > 10 | > 10 | 0 | 0 | 0 | 0 | 0
4 | O=C(c1ccc(C(=O)N2CCC(N3CCCC3)CC2)c(Nc2ccccc2)c1)N1CCC(N2CCCC2)CC1 [UNC1215] | 108 | 97.7 | 100 | 110 | 94.1 | 105 | 111 | 106 | 93.4 | 101 | 98.6 | 99.2 | 96.7 | 98 | 103 | 104 | 102 | 100 | 97.9 | 105 | 94 | 95.9 | 101 | 99.6 | 99.9 | > 10 | > 10 | > 10 | > 10 | > 10 | 0 | 0 | 0 | 0 | 0
5 | CN(C)CC[C@@]1(c2ccc(Cl)cc2)Cc2ccccc2C(=O)O1 (racemic) [AC-7954-(+/-)] | 103 | 92.4 | 98.3 | 102 | 106 | 98.2 | 104 | 103 | 96.5 | 104 | 89.8 | 104 | 104 | 96.4 | 94.8 | 99 | 94.9 | 99.4 | 105 | 102 | 91.4 | 94.8 | 88.3 | 92.8 | 100 | > 10 | > 10 | > 10 | > 10 | > 10 | 0 | 0 | 0 | 0 | 0
6 | C[C@H](CCC(=O)NCCS(=O)(=O)O)[C@H]1CC[C@H]2[C@@H]3[C@@H](O)C[C@@H]4C[C@H](O)CC[C@]4(C)[C@H]3CC[C@]12C [ursodeoxycholyltaurine] | 103 | 94.9 | 87.4 | 91.8 | 108 | 106 | 93.9 | 100 | 104 | 97 | 94.5 | 96.7 | 85.1 | 97.7 | 96.8 | 97.8 | 97.4 | 98.9 | 97.2 | 98.4 | 105 | 110 | 100 | 101 | 97.2 | > 10 | > 10 | > 10 | > 10 | > 10 | 0 | 0 | 0 | 0 | 0
